Test results from patent US20210156868A1, “COMPOSITIONS AND METHODS FOR DETECTING ALBUMIN” (Tournament BioVenture LLC, priority 2019, published 2021).
“Also recorded” adds a separate entry of the source.

How the values were obtained:
HSA pseudo esterase = HSA pseudo esterase (Homo sapiens, UniProt P02768); experiment: Michaelis-Menten kinetics of HSA pseudo esterase (FIG. 3); format: biochemical; details: 14:0 NPS-PC as probe
albumin = albumin (Homo sapiens, UniProt P02768); experiment: Effects of solvent and additives on pseudo-lipase activity of albumin (FIG. 13); format: biochemical
albumin, sequence (P02768 25-609): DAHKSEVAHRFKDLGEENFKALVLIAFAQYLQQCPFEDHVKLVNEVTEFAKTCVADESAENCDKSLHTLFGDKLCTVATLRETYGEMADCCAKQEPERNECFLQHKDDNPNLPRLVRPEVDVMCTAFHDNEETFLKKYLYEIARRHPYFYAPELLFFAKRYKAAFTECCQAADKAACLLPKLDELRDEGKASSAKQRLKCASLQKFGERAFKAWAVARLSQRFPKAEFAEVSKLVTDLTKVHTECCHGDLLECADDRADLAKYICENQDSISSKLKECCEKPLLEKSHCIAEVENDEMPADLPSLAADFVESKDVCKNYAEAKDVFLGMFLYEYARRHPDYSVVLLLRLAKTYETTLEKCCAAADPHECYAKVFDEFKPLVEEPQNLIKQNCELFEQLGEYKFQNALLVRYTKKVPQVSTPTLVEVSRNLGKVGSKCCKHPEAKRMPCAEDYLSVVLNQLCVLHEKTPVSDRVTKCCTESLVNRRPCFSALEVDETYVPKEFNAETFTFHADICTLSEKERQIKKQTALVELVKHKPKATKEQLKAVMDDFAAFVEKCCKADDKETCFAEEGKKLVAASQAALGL
From the text: Dimethyl sulfoxide (DMSO), EDTA and Tween-20 had been used to determine the tolerable concentration of organic solvent.

Ca^2+ dependent PLA2 = details: 5 mM in the assay buffer
[1] = tested on: non-albumin esterase activity (PLA2 activity in human serum, associated with LDL or HDL); experiment: Inhibition of non-albumin esterase (PLA2) activity with 14:0 NPS-PC as probe (FIG. 4); format: biochemical; details: for sensitivity of non-albumin (LDL/HDL, PLA2) esterase activity compared to pseudo esterase activity of albumin: human serum, 14:0 NPS-PC probe
Procedure: The reaction was started by the addition of 110 μl of TBS reaction buffer (10 mM Tris-HCl, 150 mM NaCl, pH 7.4) containing […] 14:0 NPS-PC and 5 mM EDTA to 20 μl of HSA solution in a well of a 96-well plate. The reactions were followed at wavelength 405 nm (absorbance) in a SPECTRAmax M5 plate reader.
As shown in EXAMPLE 1, using 14:0 NPS-PC as probe also identified non-albumin esterase activity, i.e. PLA2 activity in human serum, which is mainly associated with HDL and LDL. […] Pefabloc at 15-20 mM (final concentration) can eliminate all non-albumin esterase activity but maintain >90% of albumin esterase activity when assayed with 1.5 mM 14:0 NPS-PC at pH 7.4.

[2] = biological target: HSA pseudo esterase activity (Homo sapiens, UniProt P02768); details: 2 mM Pefabloc SC incubation; HSA 44 mg/ml in TBS, pH 7.4; hydrochloride
HSA pseudo esterase activity, sequence (P02768 25-609): as above

[3] = tested on: non-HSA esterase activity associated with HDL; experiment: Inactivation of HDL-associated esterase activity on incubation with Pefabloc SC (FIG. 5); format: biochemical, human; details: 2 mM Pefabloc SC
[4] = tested on: human serum non-HSA esterase activity; experiment: Inactivation of non-HSA esterase activity in mix of 20 human sera (FIG. 6, FIG. 7); format: biochemical; details: 1 mM Pefabloc SC, 24° C., hydrochloride
Procedure: When human serum was incubated with 1 mM Pefabloc, the non-HSA esterase activity can be abolished in about 10 minutes.

Solubility in water = format: physicochemical

HSA pseudo esterase, sequence (P02768 25-609): as above

SMILES: CCCCCCCCCCCCCC(=O)OC[C@H](COP(=O)([O-])OCC[N+](C)(C)C)OC(=O)CCC(=O)Oc1ccc([N+](=O)[O-])cc1 [14:0 NPS-PC, 1-myristoyl-2-(4-nitrophenylsuccinyl)-sn-glycero-3-phosphocholine]
- Km in the pseudo esterase reaction of HSA (HSA pseudo esterase): relative low Km

SMILES: C[S+](C)[O-] [DMSO, Dimethyl sulfoxide]
- effect on the assay of albumin (albumin): does not have effects

SMILES: O=C(O)CN(CCN(CC(=O)O)CC(=O)O)CC(=O)O [EDTA]
- activity of Ca^2+ dependent PLA2 towards 14:0 NPS-PC (Ca^2+ dependent PLA2): suppresses

SMILES: O=S(=O)(F)Cc1ccccc1 [PMSF, phenylmethylsulfonyl fluoride]
- sensitivity of non-albumin (LDL/HDL, PLA2) esterase activity compared to pseudo esterase activity of albumin [1]: much more sensitive

SMILES: Cl.NCCc1ccc(S(=O)(=O)F)cc1 [Pefabloc SC, 4-(2-aminoethyl)benzenesulfonyl fluoride hydrochloride]
- inactivation of HSA pseudo esterase activity [2]: No inactivation; also recorded: no activity loss
- non-HSA esterase activity associated with HDL depleted ([3]; 6 hr of incubation, HDL 2.5 mg/ml of cholesterol): About 80%
- incubation time to complete inactivation of HDL-associated esterase activity ([3]; purified HDL): 6 to 10 h
- sensitivity of non-albumin (LDL/HDL, PLA2) esterase activity compared to pseudo esterase activity of albumin [1]: much more sensitive
- non-albumin esterase activity ([1]; inhibitor 15-20 mM final concentration, 1.5 mM 14:0 NPS-PC, pH 7.4): eliminate all
- incubation time to complete inactivation of human serum non-HSA esterase activity [4]: about 15 min
- incubation time to complete inactivation of human serum non-HSA esterase activity ([4]; listed as Pefabloc): about 10 min

SMILES: CCN(CC)CCN(Cc1ccc(-c2ccc(C(F)(F)F)cc2)cc1)C(=O)Cn1c(SCc2ccc(F)cc2)nc(=O)c2c1CCC2 [darapladib]
- solubility in water (Solubility in water): insoluble in water
